Reference: PMC11012124, “Synthesis of Novel Triazine-Based Chalcones and 8,9-dihydro-7H-pyrimido[4,5-b][1,4]diazepines as Potential Leads in the Search of Anticancer, Antibacterial and Antifungal Agents” (International Journal of Molecular Sciences, 2024)

How the values were obtained:
[1] = test system: LOX IMVI; experiment: cells; settings: Homo sapiens, 48 h
[2] = test system: UACC-62; experiment: cells; settings: Homo sapiens, UACC-62, 48 h
[3] = test system: OVCAR-4; experiment: cells; settings: Homo sapiens, OVCAR-4, 48 h
[4] = test system: HL-60(TB); experiment: cells; settings: Homo sapiens, HL-60, 48 h
[5] = test system: T-47D; experiment: cells; settings: Homo sapiens, T47D, 48 h
[6] = test system: RPMI-8226; experiment: cells; settings: Homo sapiens, RPMI-8226, 48 h
[7] = test system: U251; experiment: cells; settings: Homo sapiens, U-251, 48 h
[8] = test system: CCRF-CEM; experiment: cells; settings: Homo sapiens, 48 h
[9] = test system: EKVX; experiment: cells; settings: Homo sapiens, 48 h
[10] = test system: BT-549; experiment: cells; settings: Homo sapiens, BT-549, 48 h
[11] = test system: MALME-3M; experiment: cells; settings: Homo sapiens, 48 h
[12] = test system: M14; experiment: cells; settings: Homo sapiens, M14, 48 h
[13] = test system: SN12C; experiment: cells; settings: Homo sapiens, 48 h
[14] = test system: SF-268; experiment: cells; settings: Homo sapiens, SF-268, 48 h
[15] = test system: MDA-MB-231/ATCC; experiment: cells; settings: Homo sapiens, MDA-MB-231, 48 h
[16] = test system: UACC-257; experiment: cells; settings: Homo sapiens, UACC-257, 48 h
[17] = test system: 60 cancer cell lines; experiment: NCI-60 one-dose screen (10 μM); assay type: cell-based; settings: Homo sapiens; one dose of 10 μM, mean over 60 cancer cell lines; read-out: Mean Growth Percent (MGP)
From the text: Additionally, the mean of the growth percentages (MGP) of each compound against all the 60 cancer cell lines is also reported, which is used as one of the selection criteria to continue with tests at five concentration doses.

[18] = test system: HCT-116; experiment: cells; settings: Homo sapiens, HCT-116, 48 h
[19] = test system: NCI-H322M; experiment: cells; settings: Homo sapiens, 48 h
[20] = test system: SF-539; experiment: cells; settings: Homo sapiens, SF-539, 48 h
[21] = test system: MCF7; experiment: cells; settings: Homo sapiens, MCF7, 48 h
[22] = test system: HS 578T; experiment: cells; settings: Homo sapiens, 48 h
[23] = test system: HT29; experiment: cells; settings: Homo sapiens, HT-29, 48 h
[24] = Hemolytic activity, spectrophotometric; assay type: cell-based, human; settings: human, human red blood cells (huRBC), 5% hematocrit, 200 μg/mL, 37 °C
[25] = test system: OVCAR-3; experiment: cells; settings: Homo sapiens, OVCAR-3, 48 h
[26] = test system: HOP-62; experiment: cells; settings: Homo sapiens, HOP-62, 48 h
[27] = test system: SF-295; experiment: cells; settings: Homo sapiens, SF-295, 48 h
[28] = test system: MDA-MB-435; experiment: cells; settings: Homo sapiens, MDA-MB-435, 48 h
[29] = test system: DU-145; experiment: cells; settings: Homo sapiens, DU-145, 48 h
[30] = test system: PC-3; experiment: cells; settings: Homo sapiens, PC-3, 48 h
[31] = test system: A498; experiment: cells; settings: Homo sapiens, A498, 48 h
[32] = test system: OVCAR-5; experiment: cells; settings: Homo sapiens, OVCAR-5, 48 h
[33] = test system: OVCAR-8; experiment: cells; settings: Homo sapiens, OVCAR-8, 48 h
[34] = test system: ACHN; experiment: cells; settings: Homo sapiens, 48 h
[35] = test system: NCI-H226; experiment: cells; settings: Homo sapiens, NCI-H226, 48 h
[36] = test system: COLO 205; experiment: cells; settings: Homo sapiens, COLO 205, 48 h
[37] = test system: UO-31; experiment: cells; settings: Homo sapiens, UO-31, 48 h
[38] = test system: MOLT-4; experiment: cells; settings: Homo sapiens, MOLT-4, 48 h

What does the source list for COc1cc(/C=C/C(=O)c2ccc(S(=O)(=O)NCCNc3nc(Nc4ccc(F)cc4)nc(N(C)C)n3)cc2)cc(OC)c1OC [24d]?
GI50 [1]: 1.71 µM; CC50 ([1]; read-out: LC50, LOX IMVI, 48 h): 5.62 µM; GI50 [2]: 8.28 µM; CC50 ([2]; read-out: LC50): 48.8 µM; GI50 [3]: 8.02 µM; CC50 ([3]; read-out: LC50): > 100 µM; GI50 [4]: 2.64 µM; CC50 ([4]; read-out: LC50): > 100 µM; GI50 [5]: 3.48 µM; CC50 ([5]; read-out: LC50): > 100 µM; GI50 [6]: 2.5 µM; CC50 ([6]; read-out: LC50): > 100 µM; GI50 ([7]; U251, 48 h): 1.81 µM; CC50 ([7]; read-out: LC50): 6.89 µM; GI50 [8]: 3.62 µM; CC50 ([8]; read-out: LC50): > 100 µM; GI50 [9]: 4.85 µM; CC50 ([9]; read-out: LC50): 42.2 µM; GI50 [10]: 2.25 µM; CC50 ([10]; read-out: LC50): 31.2 µM; GI50 [11]: 11.9 µM; CC50 ([11]; read-out: LC50): 55.2 µM; GI50 [12]: 3.28 µM; CC50 ([12]; read-out: LC50): 47.4 µM; GI50 [13]: 5.71 µM; CC50 ([13]; read-out: LC50): 63.6 µM; GI50 [14]: 11.7 µM; CC50 ([14]; read-out: LC50): > 100 µM; GI50 [15]: 4.41 µM; CC50 ([15]; read-out: LC50): 83.4 µM; GI50 [16]: 15.1 µM; CC50 ([16]; read-out: LC50): 65.1 µM; activity at 10 µM [17]: -0.31%; GI50 [18]: 1.77 µM; CC50 ([18]; read-out: LC50): 7.66 µM; GI50 [19]: 10.1 µM; CC50 ([19]; read-out: LC50): > 100 µM; GI50 [20]: 1.71 µM; CC50 ([20]; read-out: LC50, SF-539, 48 h): 5.93 µM; GI50 [21]: 1.96 µM; CC50 ([21]; read-out: LC50): 9.34 µM; GI50 [22]: 8.24 µM; CC50 ([22]; read-out: LC50): > 100 µM; GI50 [23]: 1.93 µM; CC50 ([23]; read-out: LC50): 6.46 µM; hemolysis at 24 h, 200 µg/mL [24]: 2.3%; GI50 [25]: 6.18 µM; CC50 ([25]; read-out: LC50): 98.4 µM; GI50 [26]: 14.1 µM; CC50 ([26]; read-out: LC50): 59.9 µM; GI50 [27]: 2.16 µM; CC50 ([27]; read-out: LC50): 11.1 µM; GI50 [28]: 2.8 µM; CC50 ([28]; read-out: LC50): 93.9 µM; GI50 [29]: 10.9 µM; CC50 ([29]; read-out: LC50): > 100 µM; GI50 [30]: 3.22 µM; CC50 ([30]; read-out: LC50): > 100 µM; GI50 [31]: 11.3 µM; CC50 ([31]; read-out: LC50): 50.3 µM; GI50 [32]: 12.9 µM; CC50 ([32]; read-out: LC50): 55.4 µM; GI50 [33]: 11.1 µM; CC50 ([33]; read-out: LC50): > 100 µM; GI50 [34]: 5.13 µM; CC50 ([34]; read-out: LC50): 60.4 µM; GI50 [35]: 4.47 µM; CC50 ([35]; read-out: LC50): > 100 µM; GI50 [36]: 4.78 µM; CC50 ([36]; read-out: LC50): 86.1 µM; GI50 [37]: 4.45 µM; CC50 ([37]; read-out: LC50): 41.4 µM; GI50 [38]: 2.74 µM; CC50 ([38]; read-out: LC50): > 100 µM
